Data published in PMC8347595, “N-Skatyltryptamines—Dual 5-HT6R/D2R Ligands with Antipsychotic and Procognitive Potential” (Molecules, 2021).

Molecular target: T1, Human Serotonin 5-HT6R (Homo sapiens, UniProt P50406)
T1 construct: host or cells: 1321N1 (frozen recombinant cells)
Test: 5-HT6R functional assay, antagonistic mode (cAMP induced by 5-CT, 1321N1 cells)
Assay type: cell-based
Description: The properties of compounds to inhibit cAMP production induced by a 5-HT6R agonist 5-CT (1000 nM) was evaluated. Compounds were tested in triplicate at eight concentrations (10^−11–10^−4 M). The level of cAMP was measured using frozen recombinant 1321N1 cells expressing the Human Serotonin 5-HT6R (PerkinElmer). Total cAMP was measured using the LANCE cAMP Detection Kit (PerkinElmer), according to the manufacturer’s instructions. For quantification of cAMP levels, 2000 cells/well ([…]) were incubated with a mixture of compounds ([…]) for 30 min at room temperature in a 384-well white opaque microtiter plate. After incubation, the reaction was stopped and cells were lysed by the addition of […] of working solution ([…] ULight-anti-cAMP) for 1 h at room temperature. Time-resolved fluorescence resonance energy transfer (TR-FRET) was detected by an Infinite M1000 Pro (Tecan) using instrument settings from the LANCE cAMP Detection Kit manual. […] The agonistic properties of compounds were determined with an analogous procedure, but without stimulation with 5-CT [10, 36].

T1 sequence (P50406 whole entry): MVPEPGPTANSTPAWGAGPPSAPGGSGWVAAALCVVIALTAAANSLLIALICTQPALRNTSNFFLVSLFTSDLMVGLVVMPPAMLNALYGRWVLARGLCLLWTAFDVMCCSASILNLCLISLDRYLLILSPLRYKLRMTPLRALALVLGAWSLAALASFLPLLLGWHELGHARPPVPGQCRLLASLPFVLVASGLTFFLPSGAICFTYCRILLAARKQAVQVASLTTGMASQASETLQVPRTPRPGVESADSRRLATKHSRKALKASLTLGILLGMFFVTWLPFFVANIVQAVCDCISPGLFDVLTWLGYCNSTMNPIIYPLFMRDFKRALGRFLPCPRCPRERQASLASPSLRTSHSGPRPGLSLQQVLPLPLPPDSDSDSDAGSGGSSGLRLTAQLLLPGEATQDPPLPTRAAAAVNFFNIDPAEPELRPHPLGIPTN

Question: For `Brc1ccc2c(CNCCc3c[nH]c4ccccc34)c[nH]c2c1` [Compound 15], which “5-HT6R function in words (antagonism)” value is on record?
Answer: Its value is “antagonist”.

Question: What about the Kb (antagonistic mode, 5-CT 1000 nM, read-out: 5-HT6 Kb) of the same molecule?
Answer: Its Kb is 131 nM.
